According to patent publication US20100210562A1, “USE OF IL-1 RECEPTOR PEPTIDE, ALONE OR IN COMBINATION WITH D-ALA-GLN-OCTADECYL ESTER, AS A THERAPEUTIC AGENT” (priority 2007, published 2010):
Where no end group is shown, it is not given here.

Columns and labels:
HIV-1IIIB = conditions: positive controls; MTS readout
[1] = system: hepatitis B virus (HBV) ayw strain; assay: HBV experimental assay system, secreted HBV DNA by TaqMan PCR in HepG2-2.2.15; assay type: cell-based; conditions: 10 micrograms per ml; 6 days; HBV DNA in supernatant
[2] = system: Th1/Th2 cytokine production (IL-2, IL-4, IL-5, IFN-γ, TNF-α) in murine spleen cells; assay: Th1/Th2 cytokine profiling assay in ovalbumin-restimulated spleen cells; assay type: cell-based, Balb/c mice; conditions: 10 micrograms per ml; ovalbumin restimulation; 72 hours
Description: The Balb/c mice (originated in 1923, it is a popular strain and is used in many different research disciplines. Also classified as an inbred from the production of 20 or more successive brother-sister matings, the Balb/c mouse is albino and small in size) were immunized on Days 1, 15, and 29 with Ovalbumin (Ovalbumin is the main protein found in egg white, commonly used to stimulate an immunological reaction in test animals) in PBS (5 micrograms/injection). On day 50, spleens of the mice were harvested (3 weeks after last boost with Ovalbumin). Cells were cultured (2×10^5/well in triplicate) and incubated with culture medium or test peptides—10 micrograms per ml—for 30 min. Thereafter, additional Ovalbumin was added to the cells at 10 micrograms/ml for in vitro restimulation of the cells. 72 hours later, cell supernatants were harvested and assayed using the Becton Dickinson Mouse Th1/Th2 Cytokine CBA Kit.

[3] = system: Primary Human endothelial cells (HUVEC); assay: Endothelial cell migration assay; assay type: cell-based; conditions: 10 micrograms per ml; 22 hours
Procedure: Thereafter, designated concentration of testing peptides—10 micrograms per ml—was added in duplicate wells.

HUVEC = assay: Endothelial tube formation assay; assay type: cell-based, human; conditions: 10 micrograms per ml; 20 hours; average tubule length
Description: Positive control was vehicle only. […] Raw data were expressed as average tubule lenghs in pixels±standard deviation.

HCMV strain AD169 = assay: HCMV plaque formation assay in MRC-5 cells; conditions: for inhibition of HCMV plaque formation as compared to the virus control experiment: 10 micrograms per ml, 7-10 days

| Compound | antiviral activity of positive control compounds (HIV-1) (HIV-1IIIB) | inhibition of HBV replication as compared to the virus control infection [1] [%] | change of the production of IL-2 in murine spleen cells [2] | change of the production of IL-4 in murine spleen cells [2] | decrease of the production of IFN-γ in murine spleen cells [2] | decrease of the production of IL-5 in murine spleen cells [2] | decrease of the production of TNF-a in murine spleen cells [2] [%] | increase of the migration of endothelial cells [3] [%] | inhibition of the tube formation of human endothelial cells (HUVEC) [%] | inhibition of HCMV plaque formation as compared to the virus control experiment (HCMV strain AD169) | antiviral activity of positive control compound (HCMV) (HCMV strain AD169; positive control) | inhibition of the migration of human endothelial cells [3] [%] |
| --- | --- | --- | --- | --- | --- | --- | --- | --- | --- | --- | --- | --- |
| Cc1cn([C@H]2C[C@H](N=[N+]=[N-])[C@@H](CO)O2)c(=O)[nH]c1=O [AZT] | expected levels of antiviral activity | – | – | – | – | – | – | – | – | – | – | – |
| CC(C)(C)NC(=O)[C@@H]1CN(Cc2cccnc2)CCN1C[C@@H](O)C[C@@H](Cc1ccccc1)C(=O)N[C@H]1c2ccccc2C[C@H]1O [indinavir] | expected levels of antiviral activity | – | – | – | – | – | – | – | – | – | – | – |
| D-Ala-Gln-octadecyl ester [Peptide 2] | – | 66.0 | did not significantly change | did not significantly change | 98.1% | 74.2% | 71.3 | 2 | 10 | 2.9% | – | – |
| Nc1nc(O)c2ncn(COC(CO)CO)c2n1 [Ganciclovir, reference compound] | – | – | – | – | – | – | – | – | – | – | expected levels of antiviral activity | – |
| Lys-Ile-Cys-Ile-Arg-Ile-Gln-Ile-Ser-OH (KICIRIQIS-OH) [Peptide 1] | – | 41.0 | did not significantly change | did not significantly change | did not significantly change | did not significantly change | 97 | – | 12 | did not inhibit | – | 32 |
